Measurements published in patent US9517263B2, “Benzonaphthyridine-containing vaccines” (GlaxoSmithKline Biologicals SA, priority 2009, dated 2016).
Read-outs that look alike come from different tables or passages of the source.

Legend:
[1] = Solubility of Compound 6A; type: physicochemical; settings: for solubility: water, read-out: aqueous solubility
[2] = biological target: T1, Human TLR7 (Homo sapiens, UniProt Q9NYK1); test: Human TLR7 EC50 in HEK293 (Table A); type: cell-based
T1 construct: expressed in transfected cells; host or cells: HEK293
T1 sequence (Q9NYK1 27-1049): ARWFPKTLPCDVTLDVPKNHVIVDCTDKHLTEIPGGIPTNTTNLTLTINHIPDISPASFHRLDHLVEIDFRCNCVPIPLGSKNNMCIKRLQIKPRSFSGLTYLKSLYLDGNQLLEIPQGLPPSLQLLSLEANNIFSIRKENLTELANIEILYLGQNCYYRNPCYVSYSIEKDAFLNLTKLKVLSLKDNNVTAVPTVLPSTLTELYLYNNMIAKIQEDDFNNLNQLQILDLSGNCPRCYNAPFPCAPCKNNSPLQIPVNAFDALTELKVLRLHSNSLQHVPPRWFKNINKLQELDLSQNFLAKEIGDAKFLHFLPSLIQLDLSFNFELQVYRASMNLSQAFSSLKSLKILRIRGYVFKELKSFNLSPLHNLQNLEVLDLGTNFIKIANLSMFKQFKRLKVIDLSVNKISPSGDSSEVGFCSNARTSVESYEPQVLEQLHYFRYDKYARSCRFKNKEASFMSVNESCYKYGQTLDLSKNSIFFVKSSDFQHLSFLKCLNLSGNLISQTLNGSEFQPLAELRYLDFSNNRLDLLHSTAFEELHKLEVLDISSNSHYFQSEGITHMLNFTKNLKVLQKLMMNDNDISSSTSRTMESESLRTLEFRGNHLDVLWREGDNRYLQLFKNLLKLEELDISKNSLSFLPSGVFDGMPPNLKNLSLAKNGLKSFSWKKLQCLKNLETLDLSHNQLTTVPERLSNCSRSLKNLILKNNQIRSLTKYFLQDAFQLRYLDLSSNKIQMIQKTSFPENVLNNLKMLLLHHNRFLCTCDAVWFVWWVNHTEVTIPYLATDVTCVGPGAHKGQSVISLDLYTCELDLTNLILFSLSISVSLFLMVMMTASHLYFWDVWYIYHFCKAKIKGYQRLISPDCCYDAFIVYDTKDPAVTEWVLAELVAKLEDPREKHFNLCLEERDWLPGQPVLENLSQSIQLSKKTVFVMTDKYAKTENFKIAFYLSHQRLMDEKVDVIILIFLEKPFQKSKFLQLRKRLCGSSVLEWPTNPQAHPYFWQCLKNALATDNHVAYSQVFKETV

[3] = Compound content, recovery and encapsulation efficiency by RP-HPLC; type: physicochemical; settings: pellet vs supernatant after 10 mM HCl, 30 min
Procedure: Compound 47 was analyzed by Reversed Phase High Performance Liquid Chromatography (RP-HPLC) using a Waters Acquity System using C18 XTerra column (Waters Corporation) and a gradient of 90% water+0.1% TFA/10% acetonitrile+0.1% TFA to 100% acetonitrile+0.1% TFA in 6 min.
To determine Compound 47 concentration, 100 μL of the particle suspension described above was mixed with 900 μL of DMSO and analyzed by RP-HPLC.
To determine encapsulation efficiency, 100 μL of the particle suspension described above was diluted to 1 mL with 10 mM HCl and rocked for 30 min at room temperature. The resulting particle suspension was centrifuged. The pellet was then dissolved in 1 mL DMSO and analyzed on the RP-HPLC system to determine the amount of encapsulated Compound 47. The supernatant was also analyzed on the RP-HPLC system to determine the amount of non-encapsulated Compound 47.

[4] = Pharmacokinetic profile of Compound 47 in mice (serum, lymph nodes, muscle; LC-MS); type: in vivo; settings: i.m. once, 1 or 4 mg/kg, various PLG formulations (Vials 1-5), up to 30 days
[5] = tested on: mKC, MCP-1, IL-6, IL-10, IFNg and IL-5; test: Serum cytokine levels in mice (sandwich ELISA); type: in vivo; settings: i.m., 1, 3 and 24 hours, formulated in the PLG-based particles
Procedure: Mice were also injected intramuscularly with above-described monodispersion of Compound 47 at a dose of 100 μg Compound 47. Serum cytokine levels (mKC, MCP-1, IL-6, IL-10, IFNg and IL-5) were measured at 1, 3 and 24 hours using sandwich ELISA.

[6] = tested on: MenB strain NZ98; test: Bactericidal assay of sera of immunized mice against the MenB strain NZ98; type: in vivo, N. meningitidis; settings: delivered with PLG as encapsulated or as co-lyophilized, 25 or 100 μg
Procedure: The PLG formulations described above (Vials 1-6) were reconstituted in 1.4 mL of water for injection with gentle mixing. 100 μL of the formulations were injected per mouse, corresponding to 10 μg of each MenB antigen and in case of formulations containing Compound 47, 25 μg or 100 μg of the adjuvant. Each mouse was immunized intramuscularly (50 μL at two sites) on days 0 and 14, and bled on day 28 and on day 56.
For mice injected with MenB antigen, pooled sera for each group was analyzed for bactericidal assay against the MenB strain NZ98 2 weeks post 2nd immunization.
For mice injected with MenB antigen, pooled sera for each group was also analyzed for bactericidal assay against the MenB strain NZ98 6 weeks post 2nd immunization.

Cc1ccc2c(c1)nc(N)c1ncc(CCc3ccc(OCCOCCOCCC(F)(F)P(=O)(O)O)cc3C)cc12 [Compound 6A, 3-(2-(2-(4-(2-(5-amino-8-methylbenzo[f][1,7]naphthyridin-2-yl)ethyl)-3-methylphenoxy)ethoxy)ethoxy)-1,1-difluoropropylphosphonic acid]
solubility in dichloromethane ([1]; dichloromethane): not soluble in dichloromethane
solubility ([1]; as base form): < 400 µg/mL
solubility ([1]; pH 7, as a sodium salt): > 4000 µg/mL

COc1ccc(CCc2cnc3c(N)nc4cc(C(O)(P(=O)(O)O)P(=O)(O)O)ccc4c3c2)c(C)c1 [Compound 19A]
EC50 [2]: 23700 nM

Cc1ccc(CCc2cnc3c(N)nc4ccccc4c3c2)c(C)c1 [Compound 47, 2-(2,4-dimethylphenethyl)benzo[f][1,7]naphthyridin-5-amine]
amount of Compound 47 encapsulated in PLG particles [3]: > 90%
level of Compound 47 in serum [4]: < 1000 nM
serum cytokine levels (mKC, MCP-1, IL-6, IL-10, IFNg and IL-5) [5]: low serum cytokines
protection of the immunized mice against strain NZ98 [6]: significantly enhances the protection
